Reference: patent publication US8080555B2, “Purine derivatives and their use for treatment of autoimmune diseases” (Prometic Biosciences Inc., priority 2005, dated 2011)
Where a name gives a salt, the structure may show the parent alone.

Assays:
[1] = tested on: Freund's adjuvant-induced arthritis (AIA); assay: Freund's adjuvant-induced arthritis (AIA) in female Lewis rats; assay type: in vivo
Protocol: AIA was induced in female Lewis rats by the injection of lyophilized Mycobacterium butyricum suspended in mineral oil into the footpad. The development of arthritis was monitored over a 3 week period post-adjuvant injection. Inflammation peaks at day 3 following the adjuvant administration. Immune activation appears around day 14. Compounds were injected i.v. day-3, -2 and -1 pre-adjuvant injection and at day 10, 11 and 12 post-adjuvant injection. Body weight was recorded. The arthritis index, which is a measure of inflammation (edema), redness, and stiffness of the articulations, was used to monitor the development of the disease. The degree of arthritis was determined by measuring two perpendicular diameters of the ankles in the mediolateral and dorsoventral planes using a caliper. Joint circumference in millimeters is then calculated using a geometric formula. Both the incidence and severity of the arthritis was evaluated. Incidence is defined as the number of rats with clinical evidence of joint inflammation during the study period.
The effect of oral administration of compound 1 was determined following the protocol described above with the exception that compound 1 was orally administered at 50 mg/kg from day-3 to day 19. The positive control was indomethacin.

[2] = biological target: T1, Fc portion of human IgG; assay: Competitive protein A binding ELISA (inhibition of binding of protein A to human IgG); settings: HRP-human IgG, assay in PBS, read-out: IC50 (μM) Assay in PBS, concentration which inhibits 50% binding of protein A
T1 construct: fused on or other part: Horseradish peroxidase chemically conjugated to the IgG (detection label)
Protocol: As described above, this assay evaluates the ability of the exemplified compounds to mimic protein A. Such compounds can bind to the Fc portion of human IgG as ascertained by the inhibition of binding of protein A to human IgG. The competitive protein A binding ELISA assay was performed on a 96-well plate MAXISORP® surface to enhance the binding of protein A to the bottom of the plate. The wells were coated with 100 μL of protein A (0.8 μg) and incubated overnight at 4° C. After incubation, unbound protein A was removed by three washes with phosphate buffer saline (PBS). The plate was then incubated with 100 μL/well of a 2% solution of bovine serum albumin (BSA) for 1 h at 37° C. to block nonspecific protein binding. After incubation, the plate was washed three times with PBS. 50 μL of compound or protein A, diluted in PBS or PBS-20% DMSO at appropriate concentration, were added to the wells followed by addition of 50 μL of peroxidase-conjugated human IgG (HRP-IgG). After 1 h incubation at 37° C., the plate was washed three times with PBS to remove unbound HRP-IgG. Bound HRP-IgG was detected by incubation with 100 μL of 2,2′-azino-di[3-ethylbenzthiazoline sulfonate] diammonium salt crystals (ABTS) solution for 20 min in the dark at room temperature. The plate was then read at 405 nm on a BIO-TEK® EL 800 Universal Microplate Reader. Data was analyzed in a MICROSOFT® EXCEL® spreadsheet and the concentration of compound which inhibits 50% binding of protein A (IC50) was calculated using PRISM® software, as shown in Table 1.

[3] = tested on: LPS-induced TNFα production in J774A-1 cells; assay: LPS-induced TNFα production in J774A-1 cells, TNFα by ELISA; assay type: cell-based; settings: Mus musculus, J774.A1, 24 h, read-out: IC50 (μM), concentration which inhibits 50% of TNFα production
Protocol: The effect of compounds on TNFα production was measured by ELISA using J774-1 cells stimulated by lipopolysaccharide (LPS). J774-1 cells were cultured in the presence or absence of LPS and compound. Cells were cultured at 37° C. for 24 h and thereafter the supernatants were collected for the determination of the concentration of TNFα by ELISA as recommended by the manufacturer (BD Biosciences). Data was analyzed in a MICROSOFT® EXCEL® spreadsheet and the concentration of compound which inhibits 50% of TNFα production (IC50) was calculated using PRISM® software, as shown in Table 2.

[4] = tested on: oxazolone-induced delayed-type hypersensitivity (DTH); assay: Oxazolone-induced delayed-type hypersensitivity (DTH) in mice; assay type: in vivo; settings: for Inflammation/Ear thickness (mm), Challenge 1 / Inflammation/Ear thickness (mm), Challenge 2: intravenous, 50 mg/kg day 0, 1 and 2; for Inflammation/Ear thickness (mm), Challenge 1: first challenge day 3; for Inflammation/Ear thickness (mm), Challenge 2: second challenge day 10
Protocol: Compounds were tested for their ability to treat oxazolone-induced delayed-type hypersensitivity (DTH) in mice. On day 0, mice were sensitized with 100 μL of oxazolone in 5% acetone. On day 0, 1 and 2, mice were treated by intravenous administration of the vehicle (control) or methotrexate (MTX; positive control) or the compound at 50 mg/kg. Mice were challenged with an application of 50 μL of oxazolone on the surface of the right ear (first challenge, day 3; second challenge, day 10). Ear thickness was measured on day 4 to day 7, and on day 11 to 14. Redness and crust formation was also observed. Mice were sacrificed on day 14. TDTH (CD4) cells play an important role in regulating the intensity of the DTH response.
The effect of oral administration of compound 1 was determined following the protocol described above with the exception that compound 1 was orally administered at 50 or 150 mg/kg from day 0 to day 13. The positive control was hydrocortisone.

For `Nc1ccc(CCn2cnc3c(Nc4cccc(N)c4)ncnc32)cc1` [Compound 1, N-{9-[2-(4-aminophenyl)ethyl]-9H-purin-6-yl}benzene-1,3-diamine dihydrochloride], the “reduction in the severity of arthritis (inflammatory index)” value (“reduction … (inflammatory index)” below) ([1]; intravenous injection, FIG. 2) was “up to 25%”, the “reduction … (inflammatory index)” value ([1]; oral administration, FIG. 3) was 10-30% and the IC50 [2] was 1 µM. The IC50 [3] was greater than 100 µM, the “potency compared to methotrexate in DTH” value ([4]; intravenous administration) was “equipotent to methotrexate” and the “redness, crust formation, and ear swelling” value ([4]; intravenous administration) was “reduces”. For the same molecule, the “reduction of the inflammation as seen by lower ear thickness” value ([4]; intravenous administration) was “significant reduction”, the “Inflammation/Ear thickness (mm), Challenge 1” value [4] was 0.19 ± 0.06 mm and the “Inflammation/Ear thickness (mm), Challenge 2” value [4] was 0.56 ± 0.12 mm. The “reduction of the inflammation as seen by lower ear thickness” value ([4]; oral, 50 or 150 mg/kg day 0 to day 13, challenges 1 and 2, FIG. 1) was “significant reduction”.

With `Nc1ccc(CCn2cnc3c(Nc4cccc(N)c4)nc(N)nc32)cc1` [Compound 2, N6-(3-Amino-phenyl)-9-[2-(4-amino-phenyl)-ethyl]-9H-purine-2,6-diamine] the IC50 [2] was 13 µM and the IC50 [3] was 76 µM.

`Nc1ccc(CCn2cnc3c(Nc4cccc(N)c4)nc(NCC4CC4)nc32)cc1` [Compound 3, N6-(3-Amino-phenyl)-9-[2-(4-amino-phenyl)-ethyl]-N2-cyclopropylmethyl-9H-purine-2,6-diamine] was tested, and the IC50 [2] was 0.7 µM and the IC50 [3] was greater than 50 µM.

For `Nc1ccc(CCn2cnc3c(Nc4cccc(N)c4)nc(NCCCCCCO)nc32)cc1` [Compound 4, 6-{6-(3-Amino-phenylamino)-9-[2-(4-amino-phenyl)-ethyl]-9H-purin-2-ylamino}-hexan-1-ol], the IC50 [2] was 4.8 µM and the IC50 [3] was greater than 50 µM.

`Nc1ccc(CCn2cnc3c(Nc4cccc(N)c4)nc(NC4CC4)nc32)cc1` [Compound 5, N6-(3-Amino-phenyl)-9-[2-(4-amino-phenyl)-ethyl]-N2-cyclopropyl-9H-purine-2,6-diamine] showed an IC50 [2] of 13 µM and an IC50 [3] of 9.2 µM.

`CC(C)(C)Nc1nc(Nc2cccc(N)c2)c2ncn(CCc3ccc(N)cc3)c2n1` [Compound 6, N6-(3-Amino-phenyl)-9-[2-(4-amino-phenyl)-ethyl]-N2-tert-butyl-9H-purine-2,6-diamine] showed an IC50 [2] of 1.8 µM and an IC50 [3] of 2.3 µM.

Molecule `Nc1ccc(Cn2cnc3c(Nc4cccc(N)c4)ncnc32)cc1` [Compound 7, N-[9-(4-Amino-benzyl)-9H-purin-6-yl]-benzene-1,3-diamine] has an IC50 [2] of 0.2 µM and an IC50 [3] greater than 100 µM.

`Nc1ccc(CCn2cnc3c(Nc4cccc(N)c4)nc(NCCO)nc32)cc1` [Compound 8, 2-{6-(3-Amino-phenylamino)-9-[2-(4-amino-phenyl)-ethyl]-9H-purin-2-ylamino}-ethanol] gave an IC50 [2] of 64 µM and an IC50 [3] of 11 µM.

`Nc1cccc(Nc2nc(F)nc3c2ncn3CCc2ccc(OCc3ccccc3)cc2)c1` [Compound 9, N-{9-[2-(4-Benzyloxy-phenyl)-ethyl]-2-fluoro-9H-purin-6-yl}-benzene-1,3-diamine] gave an IC50 [2] of 7.1 µM and an IC50 [3] greater than 50 µM.

Work on `CC(C)(C)CNc1nc(Nc2cccc(N)c2)c2ncn(CCc3ccc(N)cc3)c2n1` [Compound 10, N6-(3-Amino-phenyl)-9-[2-(4-amino-phenyl)-ethyl]-N2-(2,2-dimethyl-propyl)-9H-purine-2,6-diamine] yielded an IC50 [2] of 6 µM and an IC50 [3] of 5.3 µM.

Molecule `CC(C)CNc1nc(Nc2cccc(N)c2)c2ncn(CCc3ccc(N)cc3)c2n1` [Compound 11, N6-(3-Amino-phenyl)-9-[2-(4-amino-phenyl)-ethyl]-N2-isobutyl-9H-purine-2,6-diamine] has an IC50 [2] of 22 µM and an IC50 [3] of 11 µM.

For `Nc1cccc(CCn2cnc3c(Nc4cccc(N)c4)ncnc32)c1` [Compound 12, N-{9-[2-(3-Amino-phenyl)-ethyl]-9H-purin-6-yl}-benzene-1,3-diamine], the IC50 [2] was 52 µM and the IC50 [3] was greater than 50 µM.

`Nc1ccc(CCn2cnc3c(Nc4cccc(N)c4)nc(NC4CCCC4)nc32)cc1` [Compound 13, N6-(3-Amino-phenyl)-9-[2-(4-amino-phenyl)-ethyl]-N2-cyclopentyl-9H-purine-2,6-diamine] gave an IC50 [2] of 0.2 µM and an IC50 [3] of 6.2 µM.

`Nc1cccc(Nc2ncnc3c2ncn3CCc2ccc(F)cc2)c1` [Compound 14, N-{9-[2-(4-Fluoro-phenyl)-ethyl]-9H-purin-6-yl}-benzene-1,3-diamine] showed an IC50 [2] of 0.6 µM and an IC50 [3] greater than 50 µM.

In the case of `CN(Cc1cnc2nc(N)nc(N)c2n1)c1ccc(C(=O)N[C@@H](CCC(=O)O)C(=O)O)cc1` [Methotrexate, methotrexate, reference compound], the “reduction … (inflammatory index)” value ([1]; intravenous injection, FIG. 2) is reported as 20%, the “Inflammation/Ear thickness (mm), Challenge 1” value [4] is reported as 0.17 ± 0.04 mm and the “Inflammation/Ear thickness (mm), Challenge 2” value [4] is reported as 0.46 ± 0.17 mm.

With `COc1ccc2c(c1)c(CC(=O)O)c(C)n2C(=O)c1ccc(Cl)cc1` [indomethacin, reference compound] the “reduction … (inflammatory index)” value ([1]; oral administration, FIG. 3) was 10-40%.
